Where a SMILES comes first, the peptide text is derived from it.
Tested on: HepG2 cells
Experiment: MTT assay, cell proliferation viability of normal HepG2 cells
Type: cell-based
Conditions: 256 μM, FIG. 5A
Description: i) MTT (also referred to as thiazole blue) assay is used to detect the effects of various components (LPH-I, LPH-II and LPH-III) on the cell proliferation viability of normal HepG2 cells: HepG2 cells in logarithmic growth period are taken and prepared into a cell suspension of 4×10^5 cells/mL with the high glucose DMEM medium containing 10% FBS. Sample wells are set in a 96-well plate, and 100 μL of cell suspension is added to each sample well, and the cells are cultured in a cell incubator for 24 hours to adhere to the wall. After removing the culture medium from the sample wells, the components LPH-I (>10 kDa), LPH-II (3-10 kDa) and LPH-III (<3 kDa) are respectively dissolved in the high glucose DMEM culture medium containing 10% FBS to prepare an oligopeptide culture medium with a concentration of 150 μg/mL, and then added to each sample well, with a volume of 100 μL per well. A blank well is set, no cells are present compared with the sample wells, and 100 μL PBS phosphate buffer (1×, pH 7.2) is used to replace the oligopeptide culture medium. A control well is set with cells compared with the sample wells, and 100 μL PBS phosphate buffer (1×, pH 7.2) is used to replace the oligopeptide culture medium. […] The absorbance is measured at 570 nanometers (nm) wavelength in a microplate reader. […]

C[C@H](N)C(=O)N[C@@H](Cc1ccc(O)cc1)C(=O)N1CCC[C@H]1C(=O)N[C@@H](Cc1ccccc1)C(=O)O [AYPF] (H-AYPF-OH; N-terminus and C-terminus assumed)
effect on the cell viability: a certain effect

From patent publication US12077797B2, “Oligopeptide with lipid-lowering activity, preparation method and application thereof” (Nanjing University of Finance and Economics, priority 2022, dated 2024)
